Drawing on patent US10906915B2, “Substituted pyrazoloazepin-4-ones and their use as phosphodiesterase inhibitors” (LEO Pharma A/S, priority 2016, dated 2021), this text covers IC50 for 29 compounds.

human PDE4D catalytic domain, sequence (Q08499 380-740 limits assumed): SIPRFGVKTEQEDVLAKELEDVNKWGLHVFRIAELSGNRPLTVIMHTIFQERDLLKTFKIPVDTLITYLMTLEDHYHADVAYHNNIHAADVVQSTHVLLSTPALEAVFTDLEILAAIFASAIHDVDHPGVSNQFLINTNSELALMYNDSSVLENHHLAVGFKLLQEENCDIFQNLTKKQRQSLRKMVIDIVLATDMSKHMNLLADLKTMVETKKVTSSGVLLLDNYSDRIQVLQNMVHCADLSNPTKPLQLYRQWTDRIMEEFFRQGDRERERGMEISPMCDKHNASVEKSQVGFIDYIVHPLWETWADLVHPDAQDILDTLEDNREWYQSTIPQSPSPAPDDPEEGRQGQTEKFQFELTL

The target in the assay is human PDE4D catalytic domain (UniProt no. Q08499) (Homo sapiens (Human), UniProt Q08499). Description: PDE4 assay (TR-FRET, FAM-cAMP cleavage). It is filed as biochemical. The following applies: human PDE4D catalytic domain; molar concentration giving 50% inhibition of substrate cleavage; read-out: PDE4 IC50 range. As for the experimental part:
The human PDE4D catalytic domain (UniProt no. Q08499 [[…]]) was incubated with a mixture of non-labelled cAMP (cyclic adenosine monophosphate) and fluorescein amidite (FAM) conjugated cAMP and titrated test or reference compound. Following brief incubation the enzymatic reaction was stopped by addition of binding buffer containing nanoparticles with immobilized trivalent metal ions capable of binding 1) AMP phospho groups and 2) terbium (Tb) donor fluorophores. Subsequent excitation of the Tb donor triggers time-resolved FRET to adjacent FAM acceptor molecules resulting in light emission. In the presence of a PDE4 inhibitor, AMP generation was reduced resulting in a lower fluorescence signal. The cAMP phosphodiester is not bound by the detection system.
The results were calculated as the molar concentrations resulting in 50% inhibition of the substrate cleavage compared to controls samples, and are expressed as a range of IC50 (nM).
As for `CCc1nn(CCCOC(=O)c2ccc(F)c(F)c2)c2c1C(=O)NCC1(CCOCC1)C2` [Example 44, 3-(3-ethyl-4-oxo-spiro[6,8-dihydro-5H-pyrazolo[4,3-c]azepine-7,4′-tetrahydropyran]-1-yl)propyl 3,4-difluorobenzoate], the IC50 is below 0.1 µM. In the case of `CCc1nn(CCCOC(=O)c2cccc(F)c2F)c2c1C(=O)NCC1(CCOCC1)C2` [Example 45, 3-(3-ethyl-4-oxo-spiro[6,8-dihydro-5H-pyrazolo[4,3-c]azepine-7,4′-tetrahydropyran]-1-yl)propyl 2,3-difluorobenzoate], the IC50 is below 0.1 µM. Under `CCc1nn(CCCOC(=O)c2c(F)cccc2F)c2c1C(=O)NCC1(CCOCC1)C2` [Example 46, 3-(3-ethyl-4-oxo-spiro[6,8-dihydro-5H-pyrazolo[4,3-c]azepine-7,4′-tetrahydropyran]-1-yl)propyl 2,6-difluorobenzoate] stands below 0.1 µM; under `CCc1nn(CCCOC(=O)c2cc(F)ccc2F)c2c1C(=O)NCC1(CCOCC1)C2` [Example 47, 3-(3-ethyl-4-oxo-spiro[6,8-dihydro-5H-pyrazolo[4,3-c]azepine-7,4′-tetrahydropyran]-1-yl)propyl 2,5-difluorobenzoate], below 0.1 µM; under `CCc1nn(CCCOC(=O)C2CCC(OC)CC2)c2c1C(=O)NCC1(CCOCC1)C2` (centres unmarked) [Example 48, 3-(3-ethyl-4-oxo-spiro[6,8-dihydro-5H-pyrazolo[4,3-c]azepine-7,4′-tetrahydropyran]-1-yl)propyl 4-methoxycyclohexane-carboxylate], 0.1 to 0.5 µM. The same measure for `CCc1nn(CCCOC(=O)C2CCC(F)(F)CC2)c2c1C(=O)NCC1(CCOCC1)C2` [Example 49, 3-(3-ethyl-4-oxo-spiro[6,8-dihydro-5H-pyrazolo[4,3-c]azepine-7,4′-tetrahydropyran]-1-yl)propyl 4,4-difluorocyclohexane-carboxylate]: 0.1 to 0.5 µM; for `CCc1nn(CCCOC(=O)c2ccc(C(C)=O)cc2)c2c1C(=O)NCC1(CCOCC1)C2` [Example 50, 3-(3-ethyl-4-oxo-spiro[6,8-dihydro-5H-pyrazolo[4,3-c]azepine-7,4′-tetrahydropyran]-1-yl)propyl 4-acetylbenzoate]: below 0.1 µM.

As to `CCc1nn(CCCOC(=O)c2cccc(C(C)=O)c2)c2c1C(=O)NCC1(CCOCC1)C2` [Example 51, 3-(3-ethyl-4-oxo-spiro[6,8-dihydro-5H-pyrazolo[4,3-c]azepine-7,4′-tetrahydropyran]-1-yl)propyl 3-acetylbenzoate], the IC50 is below 0.1 µM. Under `CCc1nn(CCCOC(=O)c2ccc(C#N)c(F)c2)c2c1C(=O)NCC1(CCOCC1)C2` [Example 52, 3-(3-ethyl-4-oxo-spiro[6,8-dihydro-5H-pyrazolo[4,3-c]azepine-7,4′-tetrahydropyran]-1-yl)propyl 4-cyano-3-fluoro-benzoate] stands below 0.1 µM; under `CCc1nn(CCCOC(=O)c2cc(F)cc(C#N)c2)c2c1C(=O)NCC1(CCOCC1)C2` [Example 53, 3-(3-ethyl-4-oxo-spiro[6,8-dihydro-5H-pyrazolo[4,3-c]azepine-7,4′-tetrahydropyran]-1-yl)propyl 3-cyano-5-fluoro-benzoate], below 0.1 µM. Under `CCc1nn(CCCOC(=O)c2ccc(C#N)cc2F)c2c1C(=O)NCC1(CCOCC1)C2` [Example 54, 3-(3-ethyl-4-oxo-spiro[6,8-dihydro-5H-pyrazolo[4,3-c]azepine-7,4′-tetrahydropyran]-1-yl)propyl 4-cyano-2-fluoro-benzoate] stands below 0.1 µM; under `CCc1nn(CCCOC(=O)c2ccc(F)c(C#N)c2)c2c1C(=O)NCC1(CCOCC1)C2` [Example 55, 3-(3-ethyl-4-oxo-spiro[6,8-dihydro-5H-pyrazolo[4,3-c]azepine-7,4′-tetrahydropyran]-1-yl)propyl 3-cyano-4-fluoro-benzoate], below 0.1 µM. Regarding `CCc1nn(CCCOC(=O)c2cc(C#N)ccc2F)c2c1C(=O)NCC1(CCOCC1)C2` [Example 56, 3-(3-ethyl-4-oxo-spiro[6,8-dihydro-5H-pyrazolo[4,3-c]azepine-7,4′-tetrahydropyran]-1-yl)propyl 5-cyano-2-fluoro-benzoate], the IC50 was below 0.1 µM. Turning to `CCc1nn(CCCOC(=O)c2ccc3c(c2)OCO3)c2c1C(=O)NCC1(CCOCC1)C2` [Example 57, 3-(3-ethyl-4-oxo-spiro[6,8-dihydro-5H-pyrazolo[4,3-c]azepine-7,4′-tetrahydropyran]-1-yl)propyl 1,3-benzodioxole-5-carboxylate], the IC50 was below 0.1 µM. Regarding `CCc1nn(CCCOC(=O)c2ccc(OC)c(C)c2)c2c1C(=O)NCC1(CCOCC1)C2` [Example 58, 3-(3-ethyl-4-oxo-spiro[6,8-dihydro-5H-pyrazolo[4,3-c]azepine-7,4′-tetrahydropyran]-1-yl)propyl 4-methoxy-3-methyl-benzoate], the IC50 is below 0.1 µM. Regarding `CCc1nn(CCCOC(=O)c2ccc(C)c(OC)c2)c2c1C(=O)NCC1(CCOCC1)C2` [Example 59, 3-(3-ethyl-4-oxo-spiro[6,8-dihydro-5H-pyrazolo[4,3-c]azepine-7,4′-tetrahydropyran]-1-yl)propyl 3-methoxy-4-methyl-benzoate], the IC50 is below 0.1 µM. In the case of `CCc1nn(CCCOC(=O)c2ccc(C)cc2OC)c2c1C(=O)NCC1(CCOCC1)C2` [Example 60, 3-(3-ethyl-4-oxo-spiro[6,8-dihydro-5H-pyrazolo[4,3-c]azepine-7,4′-tetrahydropyran]-1-yl)propyl 2-methoxy-4-methyl-benzoate], the IC50 was below 0.1 µM.

For the compound `CCOc1cccc(C(=O)OCCCn2nc(CC)c3c2CC2(CCOCC2)CNC3=O)c1` [Example 61, 3-(3-ethyl-4-oxo-spiro[6,8-dihydro-5H-pyrazolo[4,3-c]azepine-7,4′-tetrahydropyran]-1-yl)propyl 3-ethoxybenzoate], the IC50 was below 0.1 µM. Under `CCc1nn(CCCOC(=O)c2ccc(OC)c(F)c2)c2c1C(=O)NCC1(CCOCC1)C2` [Example 62, 3-(3-ethyl-4-oxo-spiro[6,8-dihydro-5H-pyrazolo[4,3-c]azepine-7,4′-tetrahydropyran]-1-yl)propyl 3-fluoro-4-methoxy-benzoate] stands below 0.1 µM.

For the compound `CCc1nn(CCCOC(=O)c2cc(F)cc(OC)c2)c2c1C(=O)NCC1(CCOCC1)C2` [Example 63, 3-(3-ethyl-4-oxo-spiro[6,8-dihydro-5H-pyrazolo[4,3-c]azepine-7,4′-tetrahydropyran]-1-yl)propyl 3-fluoro-5-methoxy-benzoate], the IC50 is below 0.1 µM. For the compound `CCc1nn(CCCOC(=O)c2ccc(OC)cc2F)c2c1C(=O)NCC1(CCOCC1)C2` [Example 64, 3-(3-ethyl-4-oxo-spiro[6,8-dihydro-5H-pyrazolo[4,3-c]azepine-7,4′-tetrahydropyran]-1-yl)propyl 2-fluoro-4-methoxy-benzoate], the half-inhibitory concentration (IC50) is below 0.1 µM.

In the case of `CCc1nn(CCCOC(=O)c2ccc(F)c(OC)c2)c2c1C(=O)NCC1(CCOCC1)C2` [Example 65, 3-(3-ethyl-4-oxo-spiro[6,8-dihydro-5H-pyrazolo[4,3-c]azepine-7,4′-tetrahydropyran]-1-yl)propyl 4-fluoro-3-methoxy-benzoate], the IC50 is below 0.1 µM. The same measure for `CCc1nn(CCCOC(=O)c2cccc(OC)c2F)c2c1C(=O)NCC1(CCOCC1)C2` [Example 66, 3-(3-ethyl-4-oxo-spiro[6,8-dihydro-5H-pyrazolo[4,3-c]azepine-7,4′-tetrahydropyran]-1-yl)propyl 2-fluoro-3-methoxy-benzoate]: below 0.1 µM; for `CCc1nn(CCCOC(=O)c2cc(OC)ccc2F)c2c1C(=O)NCC1(CCOCC1)C2` [Example 67, 3-(3-ethyl-4-oxo-spiro[6,8-dihydro-5H-pyrazolo[4,3-c]azepine-7,4′-tetrahydropyran]-1-yl)propyl 2-fluoro-5-methoxy-benzoate]: below 0.1 µM; for `CCc1nn(CCCOC(=O)c2cc(F)ccc2OC)c2c1C(=O)NCC1(CCOCC1)C2` [Example 68, 3-(3-ethyl-4-oxo-spiro[6,8-dihydro-5H-pyrazolo[4,3-c]azepine-7,4′-tetrahydropyran]-1-yl)propyl 5-fluoro-2-methoxy-benzoate]: below 0.1 µM. With `CCc1nn(CCCOC(=O)c2c(F)cccc2OC)c2c1C(=O)NCC1(CCOCC1)C2` [Example 69, 3-(3-ethyl-4-oxo-spiro[6,8-dihydro-5H-pyrazolo[4,3-c]azepine-7,4′-tetrahydropyran]-1-yl)propyl 2-fluoro-6-methoxy-benzoate], the IC50 is below 0.1 µM. The same measure for `CCc1nn(CCCOC(=O)c2cccc(F)c2OC)c2c1C(=O)NCC1(CCOCC1)C2` [Example 70, 3-(3-ethyl-4-oxo-spiro[6,8-dihydro-5H-pyrazolo[4,3-c]azepine-7,4′-tetrahydropyran]-1-yl)propyl 3-fluoro-2-methoxy-benzoate]: below 0.1 µM.

For the compound `CCc1nn(CCCOC(=O)c2ccc(F)cc2OC)c2c1C(=O)NCC1(CCOCC1)C2` [Example 71, 3-(3-ethyl-4-oxo-spiro[6,8-dihydro-5H-pyrazolo[4,3-c]azepine-7,4′-tetrahydropyran]-1-yl)propyl 4-fluoro-2-methoxy-benzoate], the IC50 is below 0.1 µM.

Regarding `CCc1nn(CCCOC(=O)c2ccc(C)c(Cl)c2)c2c1C(=O)NCC1(CCOCC1)C2` [Example 72, 3-(3-ethyl-4-oxo-spiro[6,8-dihydro-5H-pyrazolo[4,3-c]azepine-7,4′-tetrahydropyran]-1-yl)propyl 3-chloro-4-methyl-benzoate], the IC50 is below 0.1 µM.

The term IC50 denotes the concentration that gives 50% inhibition.
